Measurements from the supplement of paper PMC10883282.

How the values were obtained:
Assay in all cases: relative viability vs DMSO control (72 h) (fraction); higher = more viable cells
[1] = system: SW872
Method in brief: (§1)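 Sarcoma cell lines in 384-well plates, seeded to reach 80–90% confluence, were given compound after 24 h and kept 72 h at 37 °C, 5% CO2, with 0.1% DMSO vehicle and a 5 µM positive control. Relative viability came from ATPLite as percent growth, averaged over up to triplicate wells. On the rescaled values, 1 equals full and 0 equals none.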

[2] = system: VA-ES-BJ
Method in brief: as §1

[3] = system: SW684
Method in brief: as §1

[4] = system: KHOS-NP
Method in brief: as §1

[5] = system: RD
Method in brief: as §1

[6] = system: RD-ES
Method in brief: as §1

[7] = system: MES-SA
Method in brief: as §1

[8] = system: G401
Method in brief: as §1

[9] = system: HT1080
Method in brief: as §1

[10] = system: SW1353
Method in brief: as §1

[11] = system: SK-ES-1
Method in brief: as §1

[12] = system: SK-LMS-1
Method in brief: as §1

Cc1cc2cc(Oc3ccnc(Nc4cccc(CS(=O)(=O)NCCN(C)C)c4)n3)ccc2[nH]1 [Sulfatinib]
Settings | relative viability
[1], 0.00017 µM | 1.02
[1], 0.00051 µM | 1.05
[1], 0.00152 µM | 1.02
[1], 0.00457 µM | 1.02
[1], 0.01372 µM | 1
[1], 0.04115 µM | 0.996
[1], 0.1235 µM | 1.02
[1], 0.3704 µM | 1.02
[1], 1.111 µM | 0.973
[1], 3.333 µM | 0.88
[1], 10 µM | 0.526
[2], 0.00017 µM | 1.03
[2], 0.00051 µM | 1.03
[2], 0.00152 µM | 1.02
[2], 0.00457 µM | 1.03
[2], 0.01372 µM | 1.02
[2], 0.04115 µM | 1.02
[2], 0.1235 µM | 1
[2], 0.3704 µM | 1.04
[2], 1.111 µM | 1.08
[2], 3.333 µM | 1.04
[2], 10 µM | 0.486
[3], 0.00017 µM | 1.11
[3], 0.00051 µM | 1.09
[3], 0.00152 µM | 1.09
[3], 0.00457 µM | 1.12
[3], 0.01372 µM | 1.08
[3], 0.04115 µM | 1.07
[3], 0.1235 µM | 1.04
[3], 0.3704 µM | 1.1
[3], 1.111 µM | 1.05
[3], 3.333 µM | 0.995
[3], 10 µM | 0.555
[4], 0.00017 µM | 1.05
[4], 0.00051 µM | 1.05
[4], 0.00152 µM | 1.03
[4], 0.00457 µM | 1.006
[4], 0.01372 µM | 1.03
[4], 0.04115 µM | 1.019
[4], 0.1235 µM | 1.04
[4], 0.3704 µM | 1.026
[4], 1.111 µM | 1.01
[4], 3.333 µM | 1.01
[4], 10 µM | 0.963
[5], 0.00017 µM | 1.074
[5], 0.00051 µM | 1.09
[5], 0.00152 µM | 1.09
[5], 0.00457 µM | 1.123
[5], 0.01372 µM | 1.1
[5], 0.04115 µM | 1.094
[5], 0.1235 µM | 1.12
[5], 0.3704 µM | 1.09
[5], 1.111 µM | 1.07
[5], 3.333 µM | 0.981
[5], 10 µM | 0.456
[6], 0.00017 µM | 1.02
[6], 0.00051 µM | 0.998
[6], 0.00152 µM | 1.01
[6], 0.00457 µM | 0.996
[6], 0.01372 µM | 1.023
[6], 0.04115 µM | 1
[6], 0.1235 µM | 1
[6], 0.3704 µM | 1.01
[6], 1.111 µM | 0.992
[6], 3.333 µM | 0.87
[6], 10 µM | 0.579
[7], 0.00017 µM | 0.911
[7], 0.00051 µM | 0.92
[7], 0.00152 µM | 0.913
[7], 0.00457 µM | 0.906
[7], 0.01372 µM | 0.925
[7], 0.04115 µM | 0.894
[7], 0.1235 µM | 0.9221
[7], 0.3704 µM | 0.9312
[7], 1.111 µM | 0.969
[7], 3.333 µM | 0.791
[7], 10 µM | 0.299
[8], 0.00017 µM | 1.024
[8], 0.00051 µM | 0.976
[8], 0.00152 µM | 1.01
[8], 0.00457 µM | 0.995
[8], 0.01372 µM | 1.04
[8], 0.04115 µM | 0.993
[8], 0.1235 µM | 0.983
[8], 0.3704 µM | 1.02
[8], 1.111 µM | 0.969
[8], 3.333 µM | 0.536
[8], 10 µM | 0.157
[9], 0.00017 µM | 1.023
[9], 0.00051 µM | 0.983
[9], 0.00152 µM | 0.997
[9], 0.00457 µM | 1.03
[9], 0.01372 µM | 1.03
[9], 0.04115 µM | 1.03
[9], 0.1235 µM | 1.01
[9], 0.3704 µM | 1.044
[9], 1.111 µM | 0.969
[9], 3.333 µM | 1.05
[9], 10 µM | 0.878
[10], 0.00017 µM | 0.936
[10], 0.00051 µM | 0.911
[10], 0.00152 µM | 0.925
[10], 0.00457 µM | 0.941
[10], 0.01372 µM | 0.975
[10], 0.04115 µM | 0.922
[10], 0.1235 µM | 0.964
[10], 0.3704 µM | 0.931
[10], 1.111 µM | 0.906
[10], 3.333 µM | 0.845
[10], 10 µM | 0.565
[11], 0.00017 µM | 1.03
[11], 0.00051 µM | 1.03
[11], 0.00152 µM | 1.01
[11], 0.00457 µM | 1.03
[11], 0.01372 µM | 1.03
[11], 0.04115 µM | 1.05
[11], 0.1235 µM | 1.03
[11], 0.3704 µM | 1.03
[11], 1.111 µM | 1
[11], 3.333 µM | 0.859
[11], 10 µM | 0.455
[12], 0.00017 µM | 1
[12], 0.00051 µM | 1.07
[12], 0.00152 µM | 1.01
[12], 0.00457 µM | 1.04
[12], 0.01372 µM | 1.04
[12], 0.04115 µM | 1.03
[12], 0.1235 µM | 1.03
[12], 0.3704 µM | 0.986
[12], 1.111 µM | 1.01
[12], 3.333 µM | 0.924
[12], 10 µM | 0.531
